In the NIST ThermoML archive (doi:10.1021/acs.jced.5b00804):

Details: 101.33 kPa, Liquid; for viscosity: Capillary tube (Ostwald / Ubbelohde) method; for mass density: Pycnometric method

NCCN [ethane-1,2-diamine]
Details	mass density [kg/m3]	viscosity [mPa·s]
303.15 K	890.3	1.26
308.15 K	885.9	1.18
313.15 K	881.7	1.03
318.15 K	876.9	0.938
323.15 K	871.3	0.905
